Data from patent publication US6514507B2, “Hydroxydecenoic acid compounds for promoting desquamation/epidermal renewal of the skin and/or combating skin aging” (Societe L'Oreal S.A., priority 1998, dated 2003).

Test system: differentiated human keratinocytes
Test: in vitro screening of desquamating activity (release of corneocytes, cellular detachment index, flow cytometer)
Type: cell-based
Details: for % of activity with respect to the control composed of an identical culture in the absence of compound (cellular detachment index): compounds at 5 × 10^−5 M, difference between T60 and T0 (60 minutes after addition), corneocytes counted by flow cytometer
Description: This test of in vitro screening of an agent which is active with regard to desquamation was carried out on differentiated human keratinocytes. The principle of the test is based on the fact that desquamation induces the release of corneocytes. The desquamating power of the test product increases as the number of corneocytes released increases.
The protocol of the test was as follows: starting with biopsies of human skin, the keratinocytes obtained by separation from the epidermis were dissociated by enzymatic action with trypsin and were cultured at a concentration of 2×10^5 cell/ml. The growth and differentiation of the keratinocytes was obtained by culturing for 10 to 20 days in a specific medium. The activity of the test product was then evaluated after removal of the culture medium. To do this, two samples were taken at T0 and T60, that namely, before the addition of the product and 60 minutes after this addition. The samples thus taken were analyzed with a flow cytometer in order to count the population of corneocytes. The flow cytometer made it possible to distinguish the populations of corneocytes and of keratinocytes by treatment with acridine orange, which is specific for cellular DNA.
The cellular detachment index was determined by the difference between T60 and T0. The same measurement was carried out for a control not comprising test product, because the experiment inevitably produced the release of corneocytes, even in the absence of active principles.
The test was carried out with 10-hydroxy-2-decenoic acid at a concentration of 5×10^−5M.

| SMILES | activity with regard to cellular detachment (5 × 10^−5 M, differentiated human keratinocytes) | % of activity with respect to the control composed of an identical culture in the absence of compound (cellular detachment index) [%] |
| --- | --- | --- |
| O=C(O)C=CCCCCCCCO [10-Hydroxy-2-decenoic acid] | high | 110 |
| CCCCCCCC(=O)c1ccc(O)c(C(=O)O)c1 [Reference, 2-Hydroxy-5-octanoylbenzoic acid, reference compound] | – | 92 |
